# Reference: ChEMBL document CHEMBL5038633 (J Med Chem, 2022)
# Where a SMILES comes first, the peptide text is derived from it. Bridges are numbered along the chain shown (N, C = ends). [ ]: non-standard residue; d: D form. Trp(5-Br) = N[C@@H](Cc1c[nH]c2ccc(Br)cc12)C(=O)O; Abu(4,4,4-F3) = N[C@@H](CC(F)(F)F)C(=O)O; Phe(4-Cl) = N[C@@H](Cc1ccc(Cl)cc1)C(=O)O; Cha = N[C@@H](CC1CCCCC1)C(=O)O; Chg = N[C@H](C(=O)O)C1CCCCC1
# Columns and labels:
# [1] = molecular target: Sodium channel protein type 9 subunit alpha (Homo sapiens, UniProt Q15858); assay: Inhibition of human Nav1.7 stably expressed in cells with train pulses to -20 mV at 0.1 Hz and holding potential of -95 mV by Qube-automated patch clamp assay; format: cell-based
# Chain of Sodium channel protein type 9 subunit alpha (Q15858 whole entry): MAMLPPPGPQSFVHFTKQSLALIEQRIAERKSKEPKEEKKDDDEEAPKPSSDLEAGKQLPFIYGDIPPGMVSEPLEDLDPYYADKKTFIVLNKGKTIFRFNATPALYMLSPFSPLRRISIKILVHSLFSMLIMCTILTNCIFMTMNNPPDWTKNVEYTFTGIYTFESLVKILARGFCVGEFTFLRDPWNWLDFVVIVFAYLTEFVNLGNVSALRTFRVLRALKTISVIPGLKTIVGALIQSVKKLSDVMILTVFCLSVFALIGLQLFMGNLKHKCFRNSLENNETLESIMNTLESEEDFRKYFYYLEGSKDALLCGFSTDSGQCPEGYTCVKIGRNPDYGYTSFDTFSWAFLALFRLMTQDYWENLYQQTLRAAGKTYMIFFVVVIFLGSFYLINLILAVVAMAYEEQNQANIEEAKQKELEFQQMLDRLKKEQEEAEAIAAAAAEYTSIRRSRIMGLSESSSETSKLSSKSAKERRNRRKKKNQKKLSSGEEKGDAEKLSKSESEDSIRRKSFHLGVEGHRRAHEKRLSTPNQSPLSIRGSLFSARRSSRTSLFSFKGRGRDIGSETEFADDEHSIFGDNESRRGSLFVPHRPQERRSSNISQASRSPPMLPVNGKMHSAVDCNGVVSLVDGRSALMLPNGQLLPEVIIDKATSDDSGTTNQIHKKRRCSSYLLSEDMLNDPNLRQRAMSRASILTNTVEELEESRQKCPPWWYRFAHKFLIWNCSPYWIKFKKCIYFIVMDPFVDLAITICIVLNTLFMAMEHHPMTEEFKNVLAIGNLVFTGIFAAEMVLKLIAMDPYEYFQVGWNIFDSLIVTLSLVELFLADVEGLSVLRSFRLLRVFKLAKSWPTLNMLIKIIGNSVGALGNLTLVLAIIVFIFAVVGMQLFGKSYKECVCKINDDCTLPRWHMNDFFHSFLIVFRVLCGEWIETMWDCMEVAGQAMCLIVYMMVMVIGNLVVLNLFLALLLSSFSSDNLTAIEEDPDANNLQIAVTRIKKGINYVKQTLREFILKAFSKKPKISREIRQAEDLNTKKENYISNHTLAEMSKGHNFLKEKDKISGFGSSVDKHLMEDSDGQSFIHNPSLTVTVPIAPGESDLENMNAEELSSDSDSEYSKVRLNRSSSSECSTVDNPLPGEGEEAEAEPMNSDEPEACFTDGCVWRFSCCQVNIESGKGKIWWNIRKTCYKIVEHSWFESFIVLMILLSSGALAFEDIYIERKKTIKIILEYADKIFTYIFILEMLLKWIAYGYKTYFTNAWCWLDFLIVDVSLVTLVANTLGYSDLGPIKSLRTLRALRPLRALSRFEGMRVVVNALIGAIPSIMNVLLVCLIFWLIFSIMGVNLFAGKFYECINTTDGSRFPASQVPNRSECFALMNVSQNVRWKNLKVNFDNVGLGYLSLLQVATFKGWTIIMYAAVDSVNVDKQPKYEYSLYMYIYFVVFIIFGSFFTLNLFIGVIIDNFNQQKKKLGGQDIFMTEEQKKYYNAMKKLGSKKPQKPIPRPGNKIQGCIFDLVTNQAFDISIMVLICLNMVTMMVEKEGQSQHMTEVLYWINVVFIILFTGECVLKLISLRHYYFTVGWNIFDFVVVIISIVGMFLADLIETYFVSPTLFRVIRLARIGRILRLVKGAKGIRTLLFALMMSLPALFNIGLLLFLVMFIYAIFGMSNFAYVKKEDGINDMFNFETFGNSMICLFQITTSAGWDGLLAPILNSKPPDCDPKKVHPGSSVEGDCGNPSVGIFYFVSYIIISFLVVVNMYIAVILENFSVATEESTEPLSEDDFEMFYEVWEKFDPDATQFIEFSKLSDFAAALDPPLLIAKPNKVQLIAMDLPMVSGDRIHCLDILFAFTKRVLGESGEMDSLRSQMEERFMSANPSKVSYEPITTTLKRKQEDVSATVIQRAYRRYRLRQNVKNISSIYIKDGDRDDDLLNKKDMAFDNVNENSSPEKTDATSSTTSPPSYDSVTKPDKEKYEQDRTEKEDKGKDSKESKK
# [2] = molecular target: Sodium channel protein type 4 subunit alpha (Homo sapiens, UniProt P35499); assay: Inhibition of human Nav1.4 stably expressed in cells with train pulses to -20 mV at 0.1 Hz and holding potential of -95 mV by whole-cell Qube-automated patch clamp assay; format: cell-based
# [3] = molecular target: Sodium channel protein type 8 subunit alpha (Homo sapiens, UniProt Q9UQD0); assay: Inhibition of human Nav1.6 stably expressed in cells with train pulses to -20 mV at 0.1 Hz and holding potential of -85 mV by whole-cell Qube-automated patch clamp assay; format: cell-based
# Chain of Sodium channel protein type 8 subunit alpha (Q9UQD0 whole entry): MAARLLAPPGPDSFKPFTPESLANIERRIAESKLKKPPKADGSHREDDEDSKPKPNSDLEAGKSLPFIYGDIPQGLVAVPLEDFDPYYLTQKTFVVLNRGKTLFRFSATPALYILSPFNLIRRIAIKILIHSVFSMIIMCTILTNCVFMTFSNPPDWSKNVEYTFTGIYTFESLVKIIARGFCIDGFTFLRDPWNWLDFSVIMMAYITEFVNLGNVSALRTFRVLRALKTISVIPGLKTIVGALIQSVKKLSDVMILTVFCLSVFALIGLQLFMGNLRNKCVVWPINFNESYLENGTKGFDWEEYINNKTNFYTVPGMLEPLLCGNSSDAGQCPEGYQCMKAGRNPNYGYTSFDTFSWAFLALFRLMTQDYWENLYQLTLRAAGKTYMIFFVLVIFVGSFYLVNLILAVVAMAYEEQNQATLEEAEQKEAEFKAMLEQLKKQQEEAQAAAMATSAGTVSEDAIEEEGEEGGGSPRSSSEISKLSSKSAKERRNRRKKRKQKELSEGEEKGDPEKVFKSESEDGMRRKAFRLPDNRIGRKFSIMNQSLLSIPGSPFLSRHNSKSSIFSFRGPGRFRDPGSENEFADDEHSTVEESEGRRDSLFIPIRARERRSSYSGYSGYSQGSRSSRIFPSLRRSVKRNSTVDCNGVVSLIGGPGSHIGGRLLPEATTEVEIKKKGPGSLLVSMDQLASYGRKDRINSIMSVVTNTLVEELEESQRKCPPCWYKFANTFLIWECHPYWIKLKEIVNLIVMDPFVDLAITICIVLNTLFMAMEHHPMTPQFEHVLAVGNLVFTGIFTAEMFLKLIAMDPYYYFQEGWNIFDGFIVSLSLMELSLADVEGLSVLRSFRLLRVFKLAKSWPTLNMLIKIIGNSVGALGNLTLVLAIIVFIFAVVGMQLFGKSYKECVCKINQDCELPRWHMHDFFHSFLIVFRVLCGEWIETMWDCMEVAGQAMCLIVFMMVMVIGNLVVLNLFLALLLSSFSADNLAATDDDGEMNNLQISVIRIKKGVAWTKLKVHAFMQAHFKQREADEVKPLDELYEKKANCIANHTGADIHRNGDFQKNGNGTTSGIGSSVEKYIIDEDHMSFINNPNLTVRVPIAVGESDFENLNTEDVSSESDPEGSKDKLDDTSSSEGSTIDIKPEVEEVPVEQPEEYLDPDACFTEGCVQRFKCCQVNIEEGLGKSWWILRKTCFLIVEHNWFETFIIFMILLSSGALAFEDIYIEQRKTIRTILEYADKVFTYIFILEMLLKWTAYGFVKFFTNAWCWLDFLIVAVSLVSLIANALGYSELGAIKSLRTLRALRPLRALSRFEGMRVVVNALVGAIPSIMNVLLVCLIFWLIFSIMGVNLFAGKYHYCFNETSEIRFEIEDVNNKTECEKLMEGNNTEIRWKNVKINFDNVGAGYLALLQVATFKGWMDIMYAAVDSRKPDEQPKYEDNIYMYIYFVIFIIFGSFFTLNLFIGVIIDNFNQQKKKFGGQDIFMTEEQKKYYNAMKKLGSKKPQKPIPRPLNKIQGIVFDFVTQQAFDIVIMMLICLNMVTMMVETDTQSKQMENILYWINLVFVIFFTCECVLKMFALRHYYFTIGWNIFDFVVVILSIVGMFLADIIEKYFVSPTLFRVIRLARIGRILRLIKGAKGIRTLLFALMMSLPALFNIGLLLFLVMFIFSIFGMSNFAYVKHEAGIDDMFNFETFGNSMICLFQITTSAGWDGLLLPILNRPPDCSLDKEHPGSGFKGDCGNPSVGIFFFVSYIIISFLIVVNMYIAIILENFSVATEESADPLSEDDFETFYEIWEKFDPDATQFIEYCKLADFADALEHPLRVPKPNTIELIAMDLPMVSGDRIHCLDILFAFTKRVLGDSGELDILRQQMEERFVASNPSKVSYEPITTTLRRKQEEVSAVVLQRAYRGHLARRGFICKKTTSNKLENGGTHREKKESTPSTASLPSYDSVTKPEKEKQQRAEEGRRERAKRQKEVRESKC
# [4] = Inhibition of mast cell degranulation in Wistar Han rat peritoneal lavage mast cells assessed as inhibition histamine release by measuring lowest concentration at which histamine release observed measured after 30 mins; format: functional; conditions: 0.5 h
Structure (SMILES),IC50 [1],IC50 [2],IC50 [3],LED [4]
"CC(=O)N[C@H]1CSSC[C@@H]2NC(=O)[C@@H]3CSSC[C@@H](C(=O)N[C@@H](CCCCN)C(=O)N[C@@H](CCCCN)C(=O)N[C@@H](CCCCN)C(=O)N[C@@H](CC(C)C)C(=O)N[C@@H](Cc4c[nH]c5ccccc45)C(N)=O)NC(=O)[C@H](Cc4c[nH]c5ccccc45)NC(=O)[C@H](CC(C)C)NC(=O)[C@H](CCCNC(=N)N)NC(=O)[C@H](CSSC[C@H](NC(=O)[C@@H]4CCCN4C(=O)[C@H](C)NC(=O)[C@H](CC(C)C)NC(=O)[C@H](Cc4ccccc4)NC(=O)[C@H](CCCCN)NC(=O)[C@H](CCC(N)=O)NC1=O)C(=O)N[C@@H](CC(=O)O)C(=O)N[C@@H](CO)C(=O)N[C@@H](CCC(=O)O)C(=O)N[C@@H](CCCNC(=N)N)C(=O)N[C@@H](CCCCN)C(=O)N3)NC(=O)[C@H](CCC(=O)O)NC(=O)[C@H](CC(C)C)NC(=O)CNC(=O)[C@H](CCC(=O)O)NC2=O (Ac-CQKFLAPCDSERKCCEGLECRLWCKKKLW-NH2; disulfide 1-15, 8-20, 14-24)",42 nM,> 17 µM,> 17 µM,3.3 µM
"CC(=O)N[C@H]1CSSC[C@@H]2NC(=O)[C@@H]3CSSC[C@@H](C(=O)N[C@@H](CCCCN)C(=O)N[C@@H](CCCCN)C(=O)N[C@@H](CCCCN)C(=O)N[C@@H](CC(C)C)C(=O)N[C@@H](Cc4c[nH]c5ccccc45)C(N)=O)NC(=O)[C@H](Cc4c[nH]c5ccccc45)NC(=O)[C@H](CC(C)C)NC(=O)[C@H](C(C)C)NC(=O)[C@H](CSSC[C@H](NC(=O)[C@@H]4CCCN4C(=O)[C@H](C)NC(=O)[C@H](CC(C)C)NC(=O)[C@H](Cc4ccccc4)NC(=O)[C@H](CCCCN)NC(=O)[C@H](CCC(N)=O)NC1=O)C(=O)N[C@@H](CC(=O)O)C(=O)N[C@@H](CO)C(=O)N[C@@H](CCC(=O)O)C(=O)N[C@@H](CCCNC(=N)N)C(=O)N[C@@H](CCCCN)C(=O)N3)NC(=O)[C@H](CCC(=O)O)NC(=O)[C@H](CC(C)C)NC(=O)CNC(=O)[C@H](CCC(=O)O)NC2=O (Ac-CQKFLAPCDSERKCCEGLECVLWCKKKLW-NH2; disulfide 1-15, 8-20, 14-24)",232 nM,> 17 µM,> 17 µM,30 µM
"CC(=O)N[C@H]1CSSC[C@@H]2NC(=O)[C@@H]3CSSC[C@@H](C(=O)N[C@@H](CCCCN)C(=O)N[C@@H](CCCCN)C(=O)N[C@@H](CCCCN)C(=O)N[C@@H](CC(C)C)C(=O)N[C@@H](Cc4c[nH]c5ccccc45)C(N)=O)NC(=O)[C@H](Cc4c[nH]c5ccccc45)NC(=O)[C@H](C4CCCCC4)NC(=O)[C@H](CCCCN)NC(=O)[C@H](CSSC[C@H](NC(=O)[C@@H]4CCCN4C(=O)[C@H](CCC(=O)O)NC(=O)[C@H](CC(F)(F)F)NC(=O)[C@H](Cc4ccccc4)NC(=O)[C@H](CCCCN)NC(=O)[C@H](CCC(N)=O)NC1=O)C(=O)N[C@@H](CC(=O)O)C(=O)N[C@@H](CO)C(=O)N[C@@H](CCC(=O)O)C(=O)N[C@@H](CCCNC(=N)N)C(=O)N[C@@H](CCCCN)C(=O)N3)NC(=O)[C@H](CCC(=O)O)NC(=O)[C@H](CC(C)C)NC(=O)CNC(=O)[C@H](CCC(=O)O)NC2=O (Ac-CQKF[Abu(4,4,4-F3)]EPCDSERKCCEGLECK[Chg]WCKKKLW-NH2; disulfide 1-15, 8-20, 14-24)",84 nM,> 17 µM,> 17 µM,30 µM
"CC(=O)N[C@H]1CSSC[C@@H]2NC(=O)[C@@H]3CSSC[C@@H](C(=O)N[C@@H](CCCCN)C(=O)N[C@@H](CCCCN)C(=O)N[C@@H](CCCCN)C(=O)N[C@@H](CC(C)C)C(=O)N[C@@H](Cc4c[nH]c5ccccc45)C(N)=O)NC(=O)[C@H](Cc4c[nH]c5ccccc45)NC(=O)[C@H](CC4CCCCC4)NC(=O)[C@H](CCCCN)NC(=O)[C@H](CSSC[C@H](NC(=O)[C@@H]4CCCN4C(=O)[C@H](CCC(=O)O)NC(=O)[C@H](CC(F)(F)F)NC(=O)[C@H](CC4CCCCC4)NC(=O)[C@H](CCCCN)NC(=O)[C@H](CCC(N)=O)NC1=O)C(=O)N[C@@H](CC(=O)O)C(=O)N[C@@H](CO)C(=O)N[C@@H](CCC(=O)O)C(=O)N[C@@H](CCCNC(=N)N)C(=O)N[C@@H](CCCCN)C(=O)N3)NC(=O)[C@H](CCC(=O)O)NC(=O)[C@H](CC(C)C)NC(=O)CNC(=O)[C@H](CCC(=O)O)NC2=O (Ac-CQK[Cha][Abu(4,4,4-F3)]EPCDSERKCCEGLECK[Cha]WCKKKLW-NH2; disulfide 1-15, 8-20, 14-24)",76 nM,> 17 µM,> 17 µM,33 µM
"CC(=O)N[C@H]1CSSC[C@@H]2NC(=O)[C@@H]3CSSC[C@@H](C(=O)N[C@@H](CCCCN)C(=O)N[C@@H](CCCCN)C(=O)N[C@@H](CCCCN)C(=O)N[C@@H](CC(C)C)C(=O)N[C@@H](Cc4c[nH]c5ccccc45)C(N)=O)NC(=O)[C@H](Cc4c[nH]c5ccccc45)NC(=O)[C@H](CC(C)C)NC(=O)[C@H](CCCNC(=N)N)NC(=O)[C@H](CSSC[C@H](NC(=O)[C@@H]4CCCN4C(=O)[C@H](C)NC(=O)[C@H](CC(C)C)NC(=O)[C@H](Cc4ccccc4)NC(=O)[C@H](CCCCN)NC(=O)[C@H](CCC(N)=O)NC1=O)C(=O)N[C@@H](CC(=O)O)C(=O)N[C@@H](CO)C(=O)N[C@@H](CCC(=O)O)C(=O)N[C@@H](CCCNC(=N)N)C(=O)N[C@@H](CCCCN)C(=O)N3)NC(=O)[C@H](C(C)C)NC(=O)[C@H](CC(C)C)NC(=O)CNC(=O)[C@H](CCC(=O)O)NC2=O (Ac-CQKFLAPCDSERKCCEGLVCRLWCKKKLW-NH2; disulfide 1-15, 8-20, 14-24)",20 nM,1.24 µM,1.23 µM,3.3 µM
"CC(=O)N[C@H]1CSSC[C@@H]2NC(=O)[C@@H]3CSSC[C@@H](C(=O)N[C@@H](CCCCN)C(=O)N[C@@H](CCCCN)C(=O)N[C@@H](CCCCN)C(=O)N[C@@H](CC(C)C)C(=O)N[C@@H](Cc4c[nH]c5ccccc45)C(N)=O)NC(=O)[C@H](Cc4c[nH]c5ccccc45)NC(=O)[C@H](CC(C)C)NC(=O)[C@H](CCCNC(=N)N)NC(=O)[C@H](CSSC[C@H](NC(=O)[C@@H]4CCCN4C(=O)[C@H](CCC(=O)O)NC(=O)[C@H](CC(C)C)NC(=O)[C@H](Cc4ccccc4)NC(=O)[C@H](CCCCN)NC(=O)[C@H](CCC(N)=O)NC1=O)C(=O)N[C@@H](CC(=O)O)C(=O)N[C@@H](CO)C(=O)N[C@@H](CCC(=O)O)C(=O)N[C@@H](CCCNC(=N)N)C(=O)N[C@@H](CCCCN)C(=O)N3)NC(=O)[C@H](CCC(=O)O)NC(=O)[C@H](CC(C)C)NC(=O)CNC(=O)[C@H](CCC(=O)O)NC2=O (Ac-CQKFLEPCDSERKCCEGLECRLWCKKKLW-NH2; disulfide 1-15, 8-20, 14-24)",97 nM,> 17 µM,> 17 µM,10 µM
"CC(=O)N[C@H]1CSSC[C@@H]2NC(=O)[C@@H]3CSSC[C@@H](C(=O)N[C@@H](CCCCN)C(=O)N[C@@H](CCCCN)C(=O)N[C@@H](CCCCN)C(=O)N[C@@H](CC(C)C)C(=O)N[C@@H](Cc4c[nH]c5ccccc45)C(N)=O)NC(=O)[C@H](Cc4c[nH]c5ccccc45)NC(=O)[C@H](CC(C)C)NC(=O)[C@H](CCCCN)NC(=O)[C@H](CSSC[C@H](NC(=O)[C@@H]4CCCN4C(=O)[C@H](CCCCN)NC(=O)[C@H](CC(C)C)NC(=O)[C@H](Cc4ccccc4)NC(=O)[C@H](CCC(=O)O)NC(=O)[C@H](CCC(N)=O)NC1=O)C(=O)N[C@@H](CC(=O)O)C(=O)N[C@@H](CCC(=O)O)C(=O)N[C@@H](CCC(=O)O)C(=O)N[C@@H](CCCNC(=N)N)C(=O)N[C@@H](CCCCN)C(=O)N3)NC(=O)[C@H](C(C)C)NC(=O)[C@H](CC(C)C)NC(=O)CNC(=O)[C@H](CCC(=O)O)NC2=O (Ac-CQEFLKPCDEERKCCEGLVCKLWCKKKLW-NH2; disulfide 1-15, 8-20, 14-24)",225 nM,> 17 µM,> 17 µM,10 µM
"CC(=O)N[C@H]1CSSC[C@@H]2NC(=O)[C@@H]3CSSC[C@@H](C(=O)N[C@@H](CCCCN)C(=O)N[C@@H](CCCCN)C(=O)N[C@@H](CCCCN)C(=O)N[C@@H](CC(C)C)C(=O)N[C@@H](Cc4c[nH]c5ccccc45)C(=O)O)NC(=O)[C@H](Cc4c[nH]c5ccccc45)NC(=O)[C@H](C4CCCCC4)NC(=O)[C@H](CCCCN)NC(=O)[C@H](CSSC[C@H](NC(=O)[C@@H]4CCCN4C(=O)[C@H](CCC(=O)O)NC(=O)[C@H](CC(F)(F)F)NC(=O)[C@H](Cc4ccc(Cl)cc4)NC(=O)[C@H](CCCCN)NC(=O)[C@H](CCC(N)=O)NC1=O)C(=O)N[C@@H](CC(=O)O)C(=O)N[C@@H](CO)C(=O)N[C@@H](CCC(=O)O)C(=O)N[C@@H](CCCNC(=N)N)C(=O)N[C@@H](CCCCN)C(=O)N3)NC(=O)[C@H](CCC(=O)O)NC(=O)[C@H](CC(C)C)NC(=O)CNC(=O)[C@H](CCC(=O)O)NC2=O (Ac-CQK[Phe(4-Cl)][Abu(4,4,4-F3)]EPCDSERKCCEGLECK[Chg]WCKKKLW-OH; disulfide 1-15, 8-20, 14-24)",91 nM,> 17 µM,11.1 µM,30 µM
"CC(=O)N[C@H]1CSSC[C@@H]2NC(=O)[C@@H]3CSSC[C@@H](C(=O)N[C@@H](CCCCN)C(=O)N[C@@H](CCCCN)C(=O)N[C@@H](CCCCN)C(=O)N[C@@H](CC(C)C)C(=O)N[C@@H](Cc4c[nH]c5ccccc45)C(N)=O)NC(=O)[C@H](Cc4c[nH]c5ccccc45)NC(=O)[C@H](C4CCCCC4)NC(=O)[C@H](CCCCN)NC(=O)[C@H](CSSC[C@H](NC(=O)[C@@H]4CCCN4C(=O)[C@H](CCC(=O)O)NC(=O)[C@H](CC(F)(F)F)NC(=O)[C@H](Cc4c[nH]c5ccc(Br)cc45)NC(=O)[C@H](CCCCN)NC(=O)[C@H](CCC(N)=O)NC1=O)C(=O)N[C@@H](CC(=O)O)C(=O)N[C@@H](CO)C(=O)N[C@@H](CCC(=O)O)C(=O)N[C@@H](CCCNC(=N)N)C(=O)N[C@@H](CCCCN)C(=O)N3)NC(=O)[C@H](CCC(=O)O)NC(=O)[C@H](CC(C)C)NC(=O)CNC(=O)[C@H](CCC(=O)O)NC2=O (Ac-CQK[Trp(5-Br)][Abu(4,4,4-F3)]EPCDSERKCCEGLECK[Chg]WCKKKLW-NH2; disulfide 1-15, 8-20, 14-24)",30 nM,> 17 µM,2.61 µM,3.3 µM
